The test system of this test is low-density lipoproteins (LDL). Nature of the test: Anti-oxidant test (TBARS production, Cu-induced LDL oxidation). It counts as biochemical. Conditions: 5 μM CuSO4, 20 μg LDL, 37° C., 2 hours; TBARS absorbance 540 nm; FIG. 1. How it is done:
In this experiment, production level of thiobarbituric acid-reactive substances (TBARS) was measured to determine oxidization level of low-density lipoproteins (LDL). Specifically, […], of each test article was mixed with 5 μM copper (II) sulfate (CuSO4) and 20 μg of LDL, and then incubated at 37° C. for 2 hours. 250 μL of 20% tricholoroacetic acid was added to the precipitated protein. After that, 250 μL of 0.67% 2-thiobarbituric acid was added to the obtained mixture and incubated at 80° C. for 30 minutes. The final resultant was separated to give a supernatant by centrifugation at 3,000 g for 5 minutes. 300 μL of the supernatant was taken to a 96-well plate to measure its absorbance under 540 nm.

Take `CC(C)(Sc1cc(C(C)(C)C)c(O)c(C(C)(C)C)c1)Sc1cc(C(C)(C)C)c(O)c(C(C)(C)C)c1` [probucol, Probucol]: the “inhibitory concentration (IC50) for anti-oxidant activity (rank order)” value was “follow it sequentially”.
As to Hp β subunit: haptoglobin β subunit, the “inhibitory concentration (IC50) for anti-oxidant activity (rank order)” value is listed as “follow it sequentially”.

Source of the values: patent US10195248B2, “Use of haptoglobin subunit for promoting wound healing” (Taipei Medical University, priority 2016, dated 2019).
